# Test results published in patent publication US8865734B2 (priority 2010, dated 2014).
# Structures can show the parent of a compound that is named as a salt.
# What was measured:
# [1] = test system: M. tuberculosis drug sensitive strain (lab strain H37Rv); experiment: MIC by the Alamar blue method, drug sensitive strain; assay type: cell-based; details: Mycobacterium tuberculosis
# [2] = test system: M. tuberculosis H37Rv; experiment: In vivo activity in a murine model of acute tuberculosis infection; parameters: species or system BalbC mice; details: 4 weeks of treatment
# Procedure: The effect of compounds 177 and 185 on the bacterial load of TB-infected mice was compared to that of the reference compound Isoniazid (INH). 8-week old female BalbC mice were infected with 6×10^5 M. tuberculosis H37Rv via intranasal instillation. Mice were sacrificed at day 1 to control the number of CFU in the lungs. In the acute model of infection, mice were treated for 4 weeks, starting at day 1. Compounds were freshly dissolved in a 0.5% methylcellulose solution and administered by oral gavage 5 times/week. Bacterial load was assessed in lungs and spleen after homogenizing the organs in 1×PBS. Serial dilutions of organs homogenates were spread on Middlebrook 7H11 plates and CFU were determined after 3 weeks incubation at 37° C. under 5% CO2.
# [3] = test system: M. tuberculosis inside the host macrophage; experiment: QIM: Quantification of Intracellular Mycobacteria (intracellular growth assay, phenotypic cell-based); details: Mycobacterium tuberculosis; MIC, 80% bacterial growth inhibition; intracellular growth; read-out: QIM
# In short: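 Dose-response testing of intracellular mycobacterial replication in infected macrophages, a cell-based screening format; MIC is defined as the lowest concentration achieving 80% inhibition of bacterial growth.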
# [4] = test system: Mycobacterium tuberculosis H37Rv; experiment: Kinetics of inhibition and bactericidal activity (CFU plating); assay type: cell-based; details: for colony forming unit (CFU) number (bactericidal activity): after incubation with various concentrations; for growth inhibition: reached around the same time as PA-824, 14 day period
# Procedure: Mycobacterium tuberculosis H37Rv was incubated at an initial inoculum of 2×10^6 bacteria/ml in Middlebrook 7H9 media containing an increasing concentration of representative compound 47 or 54. Culture samples were collected over a 14 day period. Serial dilutions of the bacterial suspension were performed and plated on 7H 10 medium. Colonies were counted for the different dilutions after 3 weeks incubation at 37° C. under 5% CO2 and compared to that obtained for the DMSO negative and PA-824 positive controls. PA-824 (Stover et al., 2000) is a TB Alliance small chemical compound currently in phase II clinical trials for the treatment of tuberculosis. PA-824 possibly acts via generation of radicals having non-specific toxic effects.
# [5] = test system: in vitro grown Mycobacteria (M. tuberculosis); experiment: QUM: Quantification of in vitro grown Mycobacteria (in vitro growth fluorescence assay); assay type: cell-based; details: Mycobacterium tuberculosis; MIC, 80% bacterial growth inhibition; in vitro growth; read-out: QUM
# In short: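 Mycobacterium tuberculosis grown in vitro was quantified by fluorescence across compound dose responses. MIC is defined as the minimum concentration producing 80% growth inhibition.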
Structure (SMILES),MIC [3] [µM],MIC [5] [µM],melting point [°C],further results
"NNC(=O)c1ccncc1 [INH, Isoniazid, reference compound]",,,,MIC80 [1]: 1.25 µM; CFU in the lungs ([2]; 25 mg/kg): No CFU were recovered; CFU in the spleen ([2]; 25 mg/kg): No CFU were recovered
"CCc1nc2ccccn2c1C(=O)NCc1ccc(-c2ccccc2)cc1 [Compound 47, N-(Biphenyl-4-ylmethyl)-2-ethylimidazo[1,2-a]pyridine-3-carboxamide]",< 1,< 1,,MIC80 [1]: 1.25 µM; colony forming unit (CFU) number (bactericidal activity) [4]: decrease; growth inhibition [4]: 100%
"CCc1nc2cc(Cl)ccn2c1C(=O)NCc1ccc(N2CCN(c3ccc(F)cc3)CC2)cc1 [Compound 177, 7-Chloro-2-ethyl-N-(4-(4-(4-fluorophenyl)piperazin-1-yl)benzyl)imidazo[1,2-a]pyridine-3-carboxamide trihydrochloride]",,,,CFU in the spleen ([2]; 50 mg/kg orally): No CFU were detected; reduction of CFU in the lungs compared to untreated mice ([2]; 50 mg/kg orally): ~2 log CFU
"COc1c(N2C[C@@H]3CCCN[C@@H]3C2)c(F)cc2c(=O)c(C(=O)O)cn(C3CC3)c12 [MFX, moxifloxacin, reference compound]",,,,MIC80 [1]: 1.25 µM
"CCc1nc2ccccn2c1C(=O)NCc1ccc(Oc2ccccc2)cc1 [Compound 54, 2-Ethyl-N-(4-phenoxybenzyl)imidazo[1,2-a]pyridine-3-carboxamide]",< 1,< 1,,MIC80 [1]: 0.625 µM; colony forming unit (CFU) number (bactericidal activity) [4]: decrease; growth inhibition [4]: 100%
"CCc1nc2ccc(Cl)cn2c1C(=O)NCc1ccc(C#N)cc1 [Compound 146, 6-Chloro-N-(4-cyanobenzyl)-2-ethylimidazo[1,2-a]pyridine-3-carboxamide]",1 to 20,> 20,223 to 224,
"CCc1nc2ccc(Cl)cn2c1C(=O)NCc1ccc(N2CC(C)OC(C)C2)cc1 (centres unmarked) [Compound 209, 6-Chloro-N-(4-(2,6-dimethylmorpholino)benzyl)-2-ethylimidazo[1,2-a]pyridine-3-carboxamide]",< 1,< 1,176 to 177,
"CCc1nc2cc(Cl)ccn2c1C(=O)NCc1ccc(N2CCN(Cc3ccc(OC(F)(F)F)cc3)CC2)cc1 [Compound 174, 7-Chloro-2-ethyl-N-(4-(4-(4-(trifluoromethoxy)benzyl)piperazin-1-yl)benzyl)imidazo[1,2-a]pyridine-3-carboxamide]",< 1,< 1,137.1 to 137.6,
"CCc1nc2ccc(Cl)cn2c1CNc1ccc(Oc2ccc(F)cc2)cc1 [Compound 242, N-((6-Chloro-2-ethylimidazo[1,2-a]pyridin-3-yl)methyl)-4-(4-fluorophenoxy)aniline]",> 20,> 20,148.6 to 148.8,
"CCc1nc2ccc(Cl)cn2c1C(=O)NCc1ccc(N2CCC(COc3ccc(F)cc3)CC2)cc1 [Compound 296, 6-Chloro-2-ethyl-N-(4-(4-((4-fluorophenoxy)methyl)piperidin-1-yl)benzyl)imidazo[1,2-a]pyridine-3-carboxamide]",< 1,< 1,171,
"CCc1nc2ccc(Br)cn2c1C(=O)NCc1ccc(N2CCOCC2)cc1 [Compound 315, 6-Bromo-2-ethyl-N-(4-morpholinobenzyl)imidazo[1,2-a]pyridine-3-carboxamide]",< 1,< 1,228.2,
"CCc1nc2cc(Cl)ccn2c1C(=O)NCc1ccc(N2CCN(c3ccc(OC(F)(F)F)cc3)CC2)cc1 [Compound 179, 7-Chloro-2-ethyl-N-(4-(4-(4-(trifluoromethoxy)phenyl)piperazin-1-yl)benzyl)imidazo[1,2-a]pyridine-3-carboxamide]",< 1,< 1,216.3 to 217,
"CCc1nc2c[n+]([O-])ccn2c1C(=O)NCc1ccc(OC(F)(F)F)cc1 [Compound 156, 2-Ethyl-3-((4-(trifluoromethoxy)benzyl)carbamoyl)imidazo[1,2-a]pyrazine 7-oxide]",> 20,> 20,215 to 216,
"CCc1nc2ccc(Cl)cn2c1C(=O)NCc1ccc(Oc2ccc(OC(F)(F)F)cc2)cc1 [Compound 185, 6-Chloro-2-ethyl-N-(4-(4-(trifluoromethoxy)phenoxy)benzyl)imidazo[1,2-a]pyridine-3-carboxamide]",< 1,< 1,,CFU in the spleen ([2]; 50 mg/kg orally): No CFU were detected; reduction of CFU in the lungs compared to untreated mice ([2]; 50 mg/kg orally): ~2 log CFU
"CCc1nc2cc(Cl)ccn2c1C(=O)NCc1ccc(N2CCC(Oc3ccc(F)cc3)CC2)cc1 [Compound 167, 7-Chloro-2-ethyl-N-(4-(4-(4-fluorophenoxy)piperidin-1-yl)benzyl)imidazo[1,2-a]pyridine-3-carboxamide]",< 1,< 1,138 to 139,
"CCc1nc2cc(Cl)ccn2c1C(=O)NCc1ccc(N2CCC(COc3ccc(F)cc3)CC2)cc1 [Compound 297, 7-Chloro-2-ethyl-N-(4-(4-((4-fluorophenoxy)methyl)piperidin-1-yl)benzyl)imidazo[1,2-a]pyridine-3-carboxamide]",< 1,< 1,186.5,
"CCc1nc2ccc(Cl)cn2c1COc1ccc(OC(F)(F)F)cc1 [Compound 239, 6-Chloro-2-ethyl-3-((4-(trifluoromethoxy)phenoxy)methyl)imidazo[1,2-a]pyridine]",> 20,> 20,127 to 128,
"CCc1nc2ccc(Cl)cn2c1C(=O)NCc1ccc(Oc2ccc(F)cc2)cc1 [Compound 187, 6-Chloro-2-ethyl-N-(4-(4-fluorophenoxy)benzyl)imidazo[1,2-a]pyridine-3-carboxamide]",< 1,< 1,168 to 169,
"CCc1nc2c(F)cccn2c1C(=O)NCc1ccc(N2CCN(c3ccc(F)cc3)CC2)cc1 [Compound 310, 2-Ethyl-8-fluoro-N-(4-(4-(4-fluorophenyl)piperazin-1-yl)benzyl)imidazo[1,2-a]pyridine-3-carboxamide]",< 1,< 1,204.1,
"CCc1nc2ccccn2c1C(=O)NCc1ccc(N2CCN(c3ccc(F)cc3)CC2)cc1 [Compound 303, 2-Ethyl-N-(4-(4-(4-fluorophenyl)piperazin-1-yl)benzyl)imidazo[1,2-a]pyridine-3-carboxamide]",< 1,< 1,189.2,
"CCc1nc2cc(Cl)ccn2c1C(=O)NCc1ccc(Oc2ccc(OC(F)(F)F)cc2)cc1 [Compound 186, 7-Chloro-2-ethyl-N-(4-(4-(trifluoromethoxy)phenoxy)benzyl)imidazo[1,2-a]pyridine-3-carboxamide]",< 1,< 1,141 to 142,
"CCc1nc2ccc(Cl)cn2c1C(=O)NCCc1ccc(OC)cc1 [Compound 157, 6-Chloro-2-ethyl-N-(4-methoxyphenethyl)imidazo[1,2-a]pyridine-3-carboxamide]",< 1,< 1,129 to 130,
